According to ChEMBL document CHEMBL3352801, “Synthesis and lipid-lowering evaluation of 3-methyl-1H-purine-2,6-dione derivatives as potent and orally available anti-obesity agents” (Eur J Med Chem, 2014):
Calls of active or inactive are those of the source. The rule behind the calls is not given here.

How the values were obtained:
[1] = tested on: Mus musculus; assay: Increase in glucose tolerance in diet-induced obese C57Bl/6 mouse assessed as induction of insulin secretion at 150 mg/kg/day, po for 4 weeks by oral glucose tolerance test; format: functional, organism-based
[2] = tested on: Mus musculus; assay: Antiobesity activity in diet-induced obese C57Bl/6 mouse assessed as increase in HDL level at 150 mg/kg/day, po for 4 weeks administered with high-fat diet (reference value: 1.02 +/- 0.13 mM); format: functional
[3] = tested on: Mus musculus; assay: Antiobesity activity in diet-induced obese C57Bl/6 mouse assessed as reduction in LDL level at 150 mg/kg/day, po for 4 weeks administered with high-fat diet (reference value: 0.14 +/- 0.07 mM); format: functional
[4] = tested on: Mus musculus; assay: Antiobesity activity in diet-induced obese C57Bl/6 mouse assessed as change in insulin level at 150 mg/kg/day, po for 4 weeks administered with high-fat diet (reference value: 11.85 +/- 2.6 mU); format: functional
[5] = tested on: Mus musculus; assay: Antiobesity activity in diet-induced obese C57Bl/6 mouse assessed as loss of epididymal fat mass at 150 mg/kg/day, po for 4 weeks administered with high-fat diet; format: functional
[6] = tested on: Mus musculus; assay: Antiobesity activity in diet-induced obese C57Bl/6 mouse assessed as reduction in LDL level at 150 mg/kg/day, po for 4 weeks administered with high-fat diet (reference value: 0.13 +/- 0.02 mM); format: functional
[7] = tested on: Mus musculus; assay: Antiobesity activity in diet-induced obese C57Bl/6 mouse assessed as increase in HDL level at 150 mg/kg/day, po for 4 weeks administered with high-fat diet (reference value: 0.60 +/- 0.17 mM); format: functional
[8] = tested on: Mus musculus; assay: Antiobesity activity in diet-induced obese C57Bl/6 mouse assessed as reduction in hepatic triglyceride level at 150 mg/kg/day, po for 4 weeks administered with high-fat diet by Oil Red O staining-based histological method; format: functional; set-up: scale not given: the % may be the effect or the level left
[9] = tested on: Mus musculus; assay: Antiobesity activity in diet-induced obese C57Bl/6 mouse assessed as reduction in HOMA-IR value at 150 mg/kg/day, po for 4 weeks administered with high-fat diet (reference value: 0.94 +/- 0.23 no_unit); format: functional
[10] = tested on: Mus musculus; assay: Antiobesity activity in diet-induced obese C57Bl/6 mouse assessed as change in insulin level at 150 mg/kg/day, po for 4 weeks administered with high-fat diet (reference value: 4.31 +/- .82 mU); format: functional
[11] = tested on: Mus musculus; assay: Antiobesity activity in diet-induced obese C57Bl/6 mouse assessed as reduction in triglyceride level at 150 mg/kg/day, po for 4 weeks administered with high-fat diet (reference value: 0.93 +/- 0.09 mM); format: functional
[12] = tested on: Mus musculus; assay: Antiobesity activity in diet-induced obese C57Bl/6 mouse assessed as reduction in body weight at 150 mg/kg/day, po for 4 weeks administered with high-fat diet; format: functional; set-up: scale not given: the % may be the effect or the level left
[13] = tested on: Mus musculus; assay: Antiobesity activity in diet-induced obese C57Bl/6 mouse assessed as reduction in FFA level at 150 mg/kg/day, po for 4 weeks administered with high-fat diet (reference value: 25.07 +/- 3.49 ng/L); format: functional
[14] = tested on: Mus musculus; assay: Antiobesity activity in diet-induced obese C57Bl/6 mouse assessed as loss of liver weight at 150 mg/kg/day, po for 4 weeks administered with high-fat diet; format: functional
[15] = tested on: Mus musculus; assay: Antiobesity activity in diet-induced obese C57Bl/6 mouse assessed as reduction in fasting blood glucose at 150 mg/kg/day, po for 4 weeks administered with high-fat diet (reference value: 5.0 +/- 1.30 mM); format: functional
[16] = tested on: Mus musculus; assay: Antiobesity activity in diet-induced obese C57Bl/6 mouse assessed as reduction in fasting blood glucose at 150 mg/kg/day, po for 4 weeks administered with high-fat diet (reference value: 4.88 +/- 0.75 mM); format: functional
[17] = tested on: Mus musculus; assay: Antiobesity activity in diet-induced obese C57Bl/6 mouse assessed as reduction in triglyceride level at 150 mg/kg/day, po for 4 weeks administered with high-fat diet (reference value: 0.96 +/- 0.14 mM); format: functional
[18] = tested on: Mus musculus; assay: Antiobesity activity in diet-induced obese C57Bl/6 mouse assessed as reduction in FFA level at 150 mg/kg/day, po for 4 weeks administered with high-fat diet (reference value: 19.55 +/- 1.57 ng/L); format: functional
[19] = tested on: Mus musculus; assay: Decrease in insulin resistance in diet-induced obese C57Bl/6 mouse at 150 mg/kg/day, po for 4 weeks by insulin tolerance test; format: functional, organism-based

For `CN(C)C(=N)NC(=N)N` [METFORMIN], the Activity [1] was “Active”, the Activity [2] was 1.38 mM and the Activity [3] was 0.12 mM. The Activity [4] was 8.1 mU, the Activity [5] was 22.94% and the Activity [6] was 0.17 mM. For the same compound, the Activity [7] was 0.82 mM, the Activity [8] was 10.73% and the Activity [9] was 1.73. The Activity [10] was 5.48 mU, the Activity [11] was 0.92 mM and the Activity [12] was 19.08%. The Activity [13] was 26.05 ng/L, the Activity [14] was 23.2% and the Activity [15] was 5.32 mM. The Activity [16] was 7.57 mM, the Activity [17] was 1.07 mM and the Activity [18] was 21.56 ng/L. For the same compound, the Activity [19] was “Active”.
